Results: paper PMC4696656, “Insights into the Mechanism of Action of Bactericidal Lipophosphonoxins” (PLoS ONE, 2015)

Key:
mice [1] = assay: MTD test in mouse model, administration intraperitoneally; type: in vivo, Mice ICR
Description: (§1) The MTD (maximum tolerated dose) in mouse model was carried out by MediTox s.r.o. on a commercial basis. The complete protocol for the MTD testing can be found in S3 Supporting Information.
(§2) For the administration the appropriate amount of the Test item (TI) was dissolved in water (aqua for injection, B. Braun, Germany) and administered to mice either orally (in the volume of 0.5 mL/25 g of body weight) or intraperitoneally (in the volume of 1.0 mL/25 g of body weight).
(§3) S3 and S4 Tables summarize the test system parameters, the number of animals used, and the doses tested. Briefly, for each dose, 3 males are 3 females were used.
(§4) All animals from the study were observed daily for clinical signs, morbidity or mortality during acclimation, 0.5, 4, 6, 24 and 48 hours after administration. Onset, duration and severity of any signs were recorded, and used as criteria for early euthanasia decisions. The clinical observations included: changes in skin, fur, eyes, occurrence of secretion and excretion; autonomic activity (e.g. lacrimation, piloerection); changes in gait and posture; changes in unprovoked behavior, presence of stereotypes or bizarre behavior; response to handling. Ether was used for anesthesia in compliance with the Standard Operating Procedures (SOPs) of MediTox, the European convention for the protection of vertebrate animals used for experimental and other scientific purposes (ETS 123), the Czech Collection of laws No. 246/1992, inclusive of the amendments, on the Protection of animals against cruelty, and Public Notice of the Ministry of Agriculture of the Czech Republic, Collection of laws No. 419/2012 as amended, on keeping and exploitation of experimental animals. MediTox s.r.o. is a holder of the accreditation Certificate for user’s issued by Central Committee for Animal Protection of the Czech Republic.
(§5) All the animals that died during study or survived to their scheduled euthanasia (cervical dislocation under ether anesthesia) 8th day after the administration received a complete post-mortem examination and microscopic examination of organs showing evidence of gross pathology. The cause of death of animals that died during the study before the scheduled euthanasia was mainly venostasis of kidneys and liver.
(§6) S3 Supporting in formation. MTD test in mouse mo d el – a detailed […]
(§7) The MTD (maximum tolerated dose) in mouse model was carried out by MediTox s.r.o. on the […]
(§8) The stud y w as carried ou t accordin g to:
(§9) ICH M3(R2) – The International Conference on Harmonization of Technical Requirements for Registration of Pharm aceuticals for Human Use. Relevant SOPs (Standard operating procedures ) […]
(§10) Facility Management and Animal Husbandry
(§11) Animal car e was in comp liance with th e SOPs of MediTox s.r.o., the Euro pean convention fo r the protection of vertebrate animals used for experimental and other scientific purposes (ETS 123), the Czech Collection of laws No. 246/1992, inclusive of the amendments, on the Protection of animals against cruelty, and Public Notice of the Ministry of Agriculture of the Czech Republic, Collection of laws No. 419/2012 as amended, on keeping and exploitation of experimental animals. MediTox s.r.o. is a holder of the accreditation Certificate for user’s issued by Central Committee for Animal Protection of the Czech Republic.
(§12) Animal Welfare Act Compliance
(§13) The stud y was prepared for this t ype of ex perimen t and approved b y th e Ins titutional Animal Care and Use Committee ( IAC UC) and the Committee for Animal Protection of the Ministry of Health (PP 09/2013) of the Czech Republic. Procedures used in this report were designed to conform to accepted practices and to minimize or avoid causing pain, distress, or discomfort to the animals.
(§14) The number of animals selected for use in this study was considered to be the minimum number necessar y to meet scienti fic and regulator y guideli nes for this t ype of stud y.
(§15) Preparation of the Test item application formulations […]

mice [2] = assay: MTD test in mouse model, administration per os; type: in vivo, Mice ICR; conditions: for gross pathology findings: males and females
Description: as §1, §2, §3, §4, §5, §6, §7, §8, §9, §10, §11, §12, §13, §14, §15

B. subtilis 168 = assay: Selection for resistant strains, stepwise two-fold increased concentration; type: cell-based, Bacillus subtilis; conditions: 24 h cultures, two-fold increased concentration each transfer; rifampicin from 0.01 mg/L, DR5026 from 0.5 mg/L
Description: A) B. subtilis. […] Then, the growth of the culture was evaluated by OD600nm and an aliquot of the culture was transferred to a new tube with fresh medium and a two-fold increased concentration of the active compound. This template was followed until no growth was detected for DR5026 or until B. subtilis grew at 5 mg/L of rifampicin.

Caco-2 monolayers = assay: Transepithelial transport in Caco-2 monolayers; type: in vitro ADME; conditions: 3 h incubation
[3] = D2-IP 500 mg/kg i.p., females, 3 animals
[4] = D2-IP 500 mg/kg i.p., males, 3 animals
[5] = D3-IP 250 mg/kg i.p., females, 3 animals
[6] = D3-IP 250 mg/kg i.p., males, 3 animals
[7] = D4-IP 80 mg/kg i.p., females, 3 animals
[8] = D4-IP 80 mg/kg i.p., males, 3 animals
[9] = D5-IP 50 mg/kg i.p., females, 3 animals
[10] = D5-IP 50 mg/kg i.p., males, 3 animals

Q: How did the gross pathology findings (mice [1]; D1-IP, 5 mg/kg i.p., males and females) turn out when CCCCCCCCCCCCCCCCOP(=O)(CCN1C[C@@H](O)[C@H](O)C1)OC[C@H]1O[C@@H](n2ccc(=O)[nH]c2=O)[C@H](O)[C@@H]1O (stereo partly drawn) [DR5026] was run?
A: The gross pathology findings was “NO FINDINGS”.

Q: What about the “abdominal cavity red liquid, number of animals with finding” value (from here on “abdominal cavity red liquid, number”) (mice [1]; [3]) of the same molecule?
A: The value was 2.

Q: And the “kidneys venostasis, number of animals with finding” value (from here on “kidneys venostasis, number”) (mice [1]; [3])?
A: Its value is 2.

Q: What about the “liver venostasis, number of animals with finding” value (“liver venostasis, number” for short) (mice [1]; [3]) of the same molecule?
A: The value was 2.

Q: And the “lungs focal hemorrhage, number of animals with finding” value (mice [1]; [3])?
A: Its value is 1.

Q: What about the “abdominal cavity red liquid, number” value (mice [1]; [4]) of the same molecule?
A: Its value is 2.

Q: What about the “kidneys venostasis, number” value (mice [1]; [4]) of the same molecule?
A: The value was 2.

Q: What about the “liver venostasis, number” value (mice [1]; [4]) of the same molecule?
A: The value was 2.

Q: And the “abdominal cavity red liquid, number” value (mice [1]; [5])?
A: Its value is 3.

Q: What about the “kidneys venostasis, number” value (mice [1]; [5]) of the same molecule?
A: The value was 3.

Q: What about the “liver venostasis, number” value (mice [1]; [5]) of the same molecule?
A: Its value is 3.

Q: And the “thoracic cavity red liquid, number of animals with finding” value (mice [1]; [5])?
A: The value was 1.

Q: And the “abdominal cavity red liquid, number” value (mice [1]; [6])?
A: Its value is 3.

Q: And the “kidneys venostasis, number” value (mice [1]; [6])?
A: The value was 3.

Q: What about the “liver venostasis, number” value (mice [1]; [6]) of the same molecule?
A: Its value is 3.

Q: And the “lungs venostasis, number of animals with finding” value (mice [1]; [6])?
A: The value was 1.

Q: And the “thoracic cavity red liquid, number of animals with finding” value (mice [1]; [6])?
A: Its value is 1.

Q: What about the “liver enlarged, number of animals with finding” value (shortened to “liver enlarged, number”) (mice [1]; [7]) of the same molecule?
A: Its value is 3.

Q: And the “liver rounded edges, number of animals with finding” value (shortened to “liver rounded edges, number”) (mice [1]; [7])?
A: Its value is 3.

Q: And the “abdominal cavity red liquid, number” value (mice [1]; [8])?
A: Its value is 1.

Q: And the “kidneys venostasis, number” value (mice [1]; [8])?
A: Its value is 1.

Q: And the “liver enlarged, number” value (mice [1]; [8])?
A: The value was 2.

Q: And the “liver rounded edges, number” value (mice [1]; [8])?
A: The value was 2.

Q: What about the “liver venostasis, number” value (mice [1]; [8]) of the same molecule?
A: The value was 1.

Q: And the “liver enlarged, number” value (mice [1]; [9])?
A: The value was 3.

Q: What about the “liver rounded edges, number” value (mice [1]; [9]) of the same molecule?
A: Its value is 3.

Q: And the “spleen peritoneal adhesions, number of animals with finding” value (mice [1]; [9])?
A: Its value is 1.

Q: What about the “liver enlarged, number” value (mice [1]; [10]) of the same molecule?
A: The value was 3.

Q: What about the “liver peritoneal adhesions, number of animals with finding” value (mice [1]; [10]) of the same molecule?
A: Its value is 2.

Q: And the “liver rounded edges, number” value (mice [1]; [10])?
A: The value was 3.

Q: What about the “spleen peritoneal adhesions, number of animals with finding” value (mice [1]; [10]) of the same molecule?
A: The value was 2.

Q: What about the “safe limit (maximal tolerated dose)” value (mice [1]; administered peritoneally) of the same molecule?
A: Its value is 50 mg/kg.

Q: And the clinical signs (mice [1]; i.p. 80 mg/kg)?
A: Its clinical signs is “all the monitored animals were slightly stolid 5 min after the administration”.

Q: And the “severe clinical signs / moribund animals” value (mice [1]; i.p. 80 mg/kg, 24-26 hours)?
A: The value was “In one male a disturbance of locomotion was observed”.

Q: What about the clinical signs (mice [1]; i.p. 250 mg/kg and 500 mg/kg) of the same molecule?
A: The clinical signs was “exacerbated the symptoms”.

Q: And the mortality (mice [1]; i.p. 500 mg/kg, several hours after administration, 3 males + 3 females)?
A: Its mortality is “death of 2 males and 2 females”.

Q: What about the signs of toxicity (mice [1]; i.p. 5 and 50 mg/kg) of the same molecule?
A: The signs of toxicity was “did not cause any signs of toxicity”.

Q: And the gross pathology findings (mice [2]; D1-PO, 5 mg/kg p.o.)?
A: Its gross pathology findings is “NO FINDINGS”.

Q: And the gross pathology findings (mice [2]; D2-PO, 500 mg/kg p.o.)?
A: The gross pathology findings was “NO FINDINGS”.

Q: And the gross pathology findings (mice [2]; D3-PO, 1000 mg/kg p.o.)?
A: Its gross pathology findings is “NO FINDINGS”.

Q: What about the gross pathology findings (mice [2]; D4-PO, 1500 mg/kg p.o.) of the same molecule?
A: Its gross pathology findings is “NO FINDINGS”.

Q: What about the gross pathology findings (mice [2]; D5-PO, 2000 mg/kg p.o.) of the same molecule?
A: The gross pathology findings was “NO FINDINGS”.

Q: What about the signs of toxicity (mice [2]; per os 5, 500, 1000, 1500 and 2000 mg/kg, single dose) of the same molecule?
A: The signs of toxicity was “did not cause any signs of toxicity”.

Q: And the gross pathology changes (mice [2]; per os 5-2000 mg/kg)?
A: The gross pathology changes was “no gross pathology changes were detected”.

Q: What about the “highest peroral dose without any signs of toxicity (maximal tolerated dose)” value (mice [2]; peroral, single dose) of the same molecule?
A: The value was 2000 mg/kg.

Q: And the development of resistance (B. subtilis 168)?
A: The development of resistance was “failed to obtain cells that would grow at concentrations exceeding the MIC”.

Q: And the “compound in the Caco-2 cell lysate” value (Caco-2 monolayers)?
A: The value was “No compound was detected”.

Q: And the “compound at the basolateral (acceptor) side” value (Caco-2 monolayers; apical to basolateral)?
A: Its value is “No compound was detected”.
